Values quoted from earlier work as cited in patent US5231002A, “Synthetic SCM-active cancer recognition peptides” (priority 1990, dated 1993).

Key:
[1] = test system: lymphocytes from multiple sclerosis; conditions: lymphocytes from multiple sclerosis patients
[2] = test system: potentially SCM-responding lymphocytes from donors with malignant diseases

CaBP
response in the SCM test (in words) [1]: do not respond
effectiveness as cancer-associated antigen in the SCM test ([2]; known cancer-associated antigens): effective in the SCM test
time until response of lymphocytes is lost after surgical removal of malignancy ([2]; malignancies of breast or colon surgically removed): ≤ 24 h
